Test results reported in patent US11013696B2, “Lipids and lipid compositions for the delivery of active agents” (Novartis AG, priority 2013, dated 2021).

Assays:
[1] = Entrapment and RNA concentration of RSV-F replicon liposomes (Quant-iT RiboGreen); format: physicochemical
Method: RNA was encapsulated in liposomes made essentially by the method of Geall et al. (2012) PNAS vol. 109 (36): 14604-14609, Jeffs et al. (2005) Pharmaceutical Research 22 (3):362-372 and Maurer et al. (2001) Biophysical Journal, 80: 2310-2326 The liposomes were made of 10% DSPC (zwitterionic), 40% cationic lipid, 48% cholesterol and 2% PEG-conjugated DMG (2 kDa PEG). These proportions refer to the % moles in the total liposome.
Briefly, lipids were dissolved in ethanol (2 ml), a RNA replicon was dissolved in buffer (2 ml, 100 mM sodium citrate, pH 6) and these were mixed with 2 ml of buffer followed by 1 hour of equilibration. The mixture was then dialized overnight against 1×PBS. The resulting product contained liposomes, with ˜70-95% encapsulation efficiency. For in vitro and in vivo experiments formulations were diluted to the required RNA concentration with 1×PBS.
The percentage of encapsulated RNA and RNA concentration were determined by Quant-iT RiboGreen RNA reagent kit (Invitrogen), following manufacturer's instructions. The ribosomal RNA standard provided in the kit was used to generate a standard curve. Liposomes were diluted 10× or 100× in 1×TE buffer (from kit) before addition of the dye. Separately, liposomes were diluted 10× or 100× in 1×TE buffer containing 0.5% Triton X before addition of the dye (to disrupt the liposomes and thus to assay total RNA). Thereafter an equal amount of dye was added to each solution and then ˜180 μL of each solution after dye addition was loaded in duplicate into a 96 well tissue culture plate. The fluorescence (Ex 485 nm, Em 528 nm) was read on a microplate reader. All liposome formulations were dosed in vivo based on the encapsulated amount of RNA.
(§1) A self-replicating replicon encoding RSV F protein was administered to BALB/c mice, 8 animals per group, by bilateral intramuscular vaccinations (50 μL per leg) on days 0 and 21 with the replicon (0.1 and 1 ng) formulated as liposomes with the lipids described below. All liposomes tested were composed of 40% cationic lipid, 10% DSPC, 48% cholesterol and 2% PEG-DMG with similar amounts of RNA. The liposomes were all prepared using the same technique as described above.
(§2) % entrapment (% E), Concentration of RNA (Conc), particle size measured by DLS, and polydispersity reported by DLS of LNPs prepared with different cationic lipids

RSV F protein = assay: RSV immunogenicity: IgG titers after two IM immunizations with vA375 RNA expressing RSV-F in LNPs; format: in vivo, BALB/c mice; conditions: IM days 0 and 21, two weeks after two immunizations
[2] = Percent encapsulation of mRNA in lipid nanoparticles (Quant-iT Ribogreen); format: physicochemical; conditions: Table 2; leptin mRNA in LNP with the cationic lipid
In short: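 LNPs made by T-junction mixing of ethanolic lipids (cationic lipid:DSPC:cholesterol:PEG lipid 40:10:38:2, N:P 4:1) with mRNA in citrate pH 5.8-6.0, then dialysed against PBS overnight at 4 °C. RiboGreen fluorescence (ex 480/em 520 nm) measured in TE ± 0.75% Triton X-100; encapsulation = (total − free)/total.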

[3] = Particle size and polydispersity by DLS of RSV-F replicon LNPs; format: physicochemical
Method: as §1, §2

human leptin [4] = assay: Human leptin in mouse plasma (ELISA) after subcutaneous injection of encapsulated leptin mRNA; format: in vivo; conditions: hLeptin, 0.2 mpk, ob/ob
Factor VII = assay: Mouse Factor VII dosing and plasma Factor VII activity assay (FVII siRNA LNP, IV); format: in vivo; conditions: 0.03 mpk, XXX mice
Method: Female CD-1 mice were received from Harlan Labs and maintained on standard lab chow and water ad libitum. The animals weighed approximately 25 gr at time of dosing. Formulated Factor VII siRNA was administered as a single dose intravenously via the lateral tail vein. Approximately 48 hours after injection, the mice were euthanized by CO2 inhalation followed by exsanguination through the vena cava.
Plasma collected from injected mice was assayed for Factor VII enzyme activity using the Biophen FVII kit from Hyphen Biomedical (catalog number 221304). An assay standard curve was prepared using pooled plasma aliquots from the vehicle control animals. All samples were diluted to fall within the linear range of the standard curve and Factor VII activity relative to control plasma was reported.
Lipid nanoparticles comprising lipid compounds of formula (I) and the FVII siRNA duplex sequence listed above were tested in the Factor VII Activity Assay. The results of this assay are given in Table 34 below as a percent knock down of plasma Factor VII enzyme activity at a dose of 0.3 mg/kg and 0.03 mg/kg.

human leptin [5] = assay: Human leptin in mouse plasma (ELISA) after IV tail vein injection of encapsulated leptin mRNA; format: in vivo; conditions: hLeptin, 0.2 mpk, ob/ob
Method: Human leptin in mouse plasma was measured by ELISA. Antibodies purchased from the R&D Systems duoset (Cat #DY398E, part #840279 for capture antibody and part #840280 for detection antibody) were reconstituted using PBS and titered, again using PBS. The capture antibody was coated at 4 ug/ml in 30 ul/well on a white Nunc® Maxisorp 384 well plate (Cat #460372). After an overnight incubation at room temperature the capture antibody was aspirated and the plate blocked for 2 hours at room temperature with 90 ul/well of KPL milk blocker (Cat #50-82-00). Once the incubation was completed the plate was aspirated and recombinant standards and samples were added to the plate at 30 ul/well for 2 hours at 37° C. while shaking at 600 rpm. Sample/standard dilutions were made using casein sample diluent. Washing/aspiration 3 times with 100 ul/well followed, using Teknova plate wash solution (Cat #P1192). Next, detection antibody was diluted using casein detection antibody diluent to 12.5 ng/ml and added at 30 ul/well for 2 hours room temperature. After this incubation, the plate was washed again and a solution of poly-streptavidin-HRP (Cat #21140) at a 1:1250 dilution in HRP dilution buffer was added to each well (30 ul/well) and incubated for 30 minutes room temperature. A final wash/aspiration removed the HRP solution and a chemiluminescent substrate was added at 30 ul/well (Cat #1859678 & 1859679). The plate was quickly read using a SpectramaxM5 plate reader with a 50 ms integration time. The dynamic range of the ELISA is from 100-2,000 […] (6.25-125 pM) of human leptin. The assay is applicable to plasma from mice, rats and cynomolgus monkeys.
Before the tail vein injection, mouse body weights were recorded and diet weighted, with mice grouped according to their body weights. Mice were prepared by warming them under a heating lamp for ˜2 minutes, with the mice about 12 inches from heat lamp. […]
On day 0, animals were weighed and sorted according to average body weight. Mice were dosed, and food intake (FI) was recorded, on each of days 1-7 and days 9, 11, and 16.

[6] = RSV-F replicon LNP prepared for 1st IM
[7] = RSV-F replicon LNP prepared for 2nd IM

| SMILES | % E (% entrapment) [1, 6] [%] | % E (% entrapment) [1, 7] [%] | Immunogenicity (2wp2, log10 IgG titers) (RSV F protein; 0.1 ng vA375 RNA) [log10 IgG titers] | Immunogenicity (2wp2, log10 IgG titers) (RSV F protein; 1 ng vA375 RNA) [log10 IgG titers] | % encapsulation mRNA Leptin [2] [%] | PDI [3, 6] | Size [3, 6] [nm] | PDI [3, 7] | Size [3, 7] [nm] | Expression of protein following SC injection of encapsulated mRNA (human leptin [4]) [ng/mL] | FVII knock-down following IV injection of encapsulated siRNA (Factor VII) [%/0.03] | Expression of protein following IV injection of encapsulated mRNA (human leptin [5]) [ng/mL] |
| --- | --- | --- | --- | --- | --- | --- | --- | --- | --- | --- | --- | --- |
| CCCCC/C=C\C/C=C\CCCCCCCC(=O)OCC(COC(=O)CCCCCCC/C=C\C/C=C\CCCCC)OC(=O)C(CCCCCCCCCCCC)OC(=O)OCCCN(C)C (stereo not drawn) [Example 98, (9Z,9′Z,12Z,12′Z)-2-((2-(((3-(dimethylamino)propoxy)carbonyl)oxy)tetradecanoyl)oxy)propane-1,3-diyl bis(octadeca-9,12-dienoate)] | 85.91 | 76.36 | 4.28 | 4.64 | 73.4 | 0.07 | 139.4 | 0.065 | 130.9 | – | – | – |
| CCCCCCCCCCCCC(CCCOC(=O)CCCCC(COC(=O)CCCCCCC)COC(=O)CCCCCCC)OC(=O)C1(C)CCN(C)CC1 (stereo not drawn) [Example 131, 2-(5-((4-((1,4-dimethylpiperidine-4-carbonyl)oxy)hexadecyl)oxy)-5-oxopentyl)propane-1,3-diyl dioctanoate] | 85.31 | 80.31 | 4.43 | 5.22 | 96.4 | 0.119 | 138.3 | 0.07 | 143.5 | – | – | – |
| CCCCC/C=C\C/C=C\CCCCCCCCC(CCCOC(=O)CCC(=O)OC(CCCCCCCC)CCCCCCCC)OC(=O)OCCCN(C)C (stereo not drawn) [Example 58, (13Z,16Z)-4-(((3-(dimethylamino)propoxy)carbonyl)oxy)docosa-13,16-dien-1-yl heptadecan-9-yl succinate] | 87.48 | 87.03 | 4.19 | 4.26 | 90.2 | 0.111 | 139.4 | 0.075 | 137.1 | – | – | – |
| CCCCC/C=C\C/C=C\CCCCCCCC(=O)OCC(COC(=O)CCCCCCC/C=C\C/C=C\CCCCC)COC(=O)CCC(CCCCCCCCCCCC)OC(=O)OCCCN(C)C (stereo not drawn) [Example 105, (9Z,9′Z,12Z,12′Z)-2-(9-dodecyl-2-methyl-7,12-dioxo-6,8,13-trioxa-2-azatetradecan-14-yl)propane-1,3-diyl bis(octadeca-9,12-dienoate)] | 85.22 | 69.54 | 4.21 | 4.53 | – | 0.107 | 137.2 | 0.123 | 135.7 | – | – | – |
| CCCCCCCCCCCCC(CCC(=O)OC(COC(=O)CCCCCCCCC)COC(=O)CCCCCCCCC)OC(=O)OCCCN(C)CC (stereo not drawn) [Example 91, 2-((4-(((3-(ethyl(methyl)amino)propoxy)carbonyl)oxy)hexadecanoyl)oxy)propane-1,3-diyl bis(decanoate)] | – | – | – | – | 94.4 | – | – | – | – | 3.5 | 97 | 33.6 |
| CCCCCCCCCCCCC(CCOC(=O)CCCCC(OCC(CCC)CCC)OCC(CCC)CCC)OC(=O)OCCCN(C)C (stereo not drawn) [Example 115, 3-(((3-(dimethylamino)propoxy)carbonyl)oxy)pentadecyl 6,6-bis((2-propylpentyl)oxy)hexanoate] | 95.76 | 95.78 | 1.91 | 3.31 | 97.8 | 0.075 | 141.3 | 0.065 | 130.9 | – | – | – |
